{"source": "patent US6696249B1", "about": "“Method for screening for inhibitors and activators of type III secretion machinery in gram-negative bacteria” (priority 1998, dated 2004)", "key": {"[1]": {"system": "ipaH9.8-, ipaH7.8-, ipaH4.5-, and ipaH1.4-lacZ fusions", "experiment": "ipaH-lacZ fusions taken together, β-galactosidase activity in vitro", "type": "cell-based, Shigella flexneri", "details": "100 μg/ml of Congo red"}, "ipaH9.8-lacZ fusion": {"system": "ipaH9.8-lacZ fusion", "experiment": "ipaH9.8-lacZ transcriptional fusion, β-galactosidase activity in vitro", "type": "cell-based, Shigella flexneri", "details": "ipaD+ strain"}, "virA-lacZ mxiD": {"system": "virA-lacZ mxiD", "experiment": "virA-lacZ transcriptional fusion in mxiD (secretion deficient) strain SF1012, β-galactosidase activity in vitro", "type": "cell-based, Shigella flexneri", "method": "(§1) All Shigella flexneri strains identified in Table I are derivatives of the wild-type strain M90T (Sansonetti et al., 1982). Bacteria were grown in Luria-Bertani (LB) medium or tryptic soy (TCS) broth. Antibiotics were used at the following concentrations: ampicillin, 100 μg/ml; kanamycin, 30 μg/ml; and streptomycin, 100 μg/ml. Congo red (SERVA, Heidelberg, Germany) was used to induce secretion by bacteria growing in LB medium.\nTo determine whether regulation of virA transcription was dependent on the type III secretion machinery, we compared the β-galactosidase activities produced by the virA-lacZ fusion in derivatives of wild-type (SF1001) and mxiD (SF1012) strains during growth in the presence of Congo red and we compared the production of VirA in ipaD and mxiD ipaD strains.\n(§2) To investigate kinetics of activation of the virA promoter, Congo red (100 μg/ml) was added to the growth medium during the exponential phase of growth of derivatives of the wild-type and mxiD strains carrying the virA-lacZ fusion. Samples were then collected at 5 min intervals and assayed for β-galactosidase activity.\n(§3) The β-galactosidase activity present in bacteria growing in laboratory media was assayed by using the substrate o-nitro-phenyl-β-D-galactoside (ONPG) as described (Platt et al, 1972). The β-galactosidase activity present in intracellular bacteria was assayed by using the substrate 4-methyl-umbelliferyl-β-D-galactoside (MUG) as described (Klarsfeld et al., 1994). Fluorescence was measured by using a Dynatec apparatus, with 365 nm excitation and 450 nm emission wavelengths. Activities were computed as fluorescence units per hour per bacterium; four fluorescence units were equivalent to one Miller unit and all results are presented in Miller units."}, "ipaH7.8-lacZ fusion": {"system": "ipaH7.8-lacZ fusion", "experiment": "ipaH7.8-lacZ transcriptional fusion, β-galactosidase activity in vitro", "type": "cell-based, Shigella flexneri", "details": "ipaD+ strain"}, "[2]": {"system": "Secretion of IpaB and IpaC", "details": "Parsot et al, 1995; cited from earlier work"}, "mxiD-lacZ fusion": {"system": "mxiD-lacZ fusion", "experiment": "mxiD-lacZ transcriptional fusion, β-galactosidase activity in vitro", "type": "cell-based, Shigella flexneri"}, "[3]": {"system": "icsB-, ipaA-, ipgD-, and mxiD-lacZ fusions", "experiment": "entry region lacZ fusions taken together, transcription in vitro", "type": "cell-based, Shigella flexneri", "details": "Congo red in the growth medium"}, "ipgD-lacZ fusion": {"system": "ipgD-lacZ fusion", "experiment": "ipgD-lacZ transcriptional fusion, β-galactosidase activity in vitro", "type": "cell-based, Shigella flexneri"}, "ipaH4.5-lacZ fusion": {"system": "ipaH4.5-lacZ fusion", "experiment": "ipaH4.5-lacZ transcriptional fusion, β-galactosidase activity in vitro", "type": "cell-based, Shigella flexneri", "details": "ipaD+ strain"}, "virA-lacZ fusion": {"system": "virA-lacZ fusion", "type": "cell-based, Shigella flexneri", "method": "as §1\nSecretion of IpaB and IpaC is enhanced when bacteria grow in the presence of Congo red (Parsot et al, 1995). To investigate the effect of Congo red on virA transcription, we assayed the β-galactosidase activity in strain SF1001 (virA-lacZ ipaD^+) after growth in the presence of various concentrations of Congo red.\nas §2, §3"}, "ipaA-lacZ fusion": {"system": "ipaA-lacZ fusion", "experiment": "ipaA-lacZ transcriptional fusion, β-galactosidase activity in vitro", "type": "cell-based, Shigella flexneri"}, "ipaH1.4-lacZ fusion": {"system": "ipaH1.4-lacZ fusion", "experiment": "ipaH1.4-lacZ transcriptional fusion, β-galactosidase activity in vitro", "type": "cell-based, Shigella flexneri", "details": "ipaD+ strain"}, "icsB-lacZ fusion": {"system": "icsB-lacZ fusion", "experiment": "icsB-lacZ transcriptional fusion, β-galactosidase activity in vitro", "type": "cell-based, Shigella flexneri"}, "[4]": {"details": "ipaD+ strain grown in presence of Congo red"}}, "data": [{"compound": "Nc1c(/N=N/c2ccc(-c3ccc(/N=N/c4cc(S(=O)(=O)O)c5ccccc5c4N)cc3)cc2)cc(S(=O)(=O)O)c2ccccc12", "note": "[Congo red]", "values": [{"measurement": "Times more β-galactosidase activity after growth with Congo red", "setting": "[1]", "value": "3-12 times"}, {"measurement": "Ratio li: activity with Congo red versus without Congo red", "setting": "ipaH9.8-lacZ fusion", "value": 12}, {"measurement": "β-galactosidase activity, ipaD+ + CR", "setting": "ipaH9.8-lacZ fusion; 100 μg/ml Congo red", "value": 325, "unit": "Miller units"}, {"measurement": "Transcriptional activation of the virA-lacZ fusion after addition of the dye", "setting": "virA-lacZ mxiD; mxiD mutant derivative, Congo red 100 μg/ml added in exponential phase", "value": "no transcriptional activation"}, {"measurement": "Increase in β-galactosidase activity on growth with Congo red", "setting": "virA-lacZ mxiD; mxiD strain carrying virA-lacZ, Congo red in growth medium", "value": "did not lead to an increase"}, {"measurement": "Ratio li: activity with Congo red versus without Congo red", "setting": "virA-lacZ mxiD; virA-lacZ mxiD strain", "value": 1.1}, {"measurement": "β-galactosidase activity, ipaD+ + CR", "setting": "virA-lacZ mxiD; virA-lacZ mxiD strain grown in presence of Congo red", "value": 18, "unit": "Miller units"}, {"measurement": "Ratio li: activity with Congo red versus without Congo red", "setting": "ipaH7.8-lacZ fusion", "value": 12}, {"measurement": "β-galactosidase activity, ipaD+ + CR", "setting": "ipaH7.8-lacZ fusion; 100 μg/ml Congo red", "value": 235, "unit": "Miller units"}, {"measurement": "Secretion of IpaB and IpaC when bacteria grow in the presence of Congo red", "setting": "[2]", "value": "enhanced"}, {"measurement": "Ratio li: activity with Congo red versus without Congo red", "setting": "mxiD-lacZ fusion; ipaD+ strain", "value": 1.2}, {"measurement": "β-galactosidase activity, ipaD+ + CR", "setting": "mxiD-lacZ fusion; [4]", "value": 320, "unit": "Miller units"}, {"measurement": "Effect of Congo red in growth medium on transcription", "setting": "[3]", "value": "not affected"}, {"measurement": "Ratio li: activity with Congo red versus without Congo red", "setting": "ipgD-lacZ fusion; ipaD+ strain", "value": 1.1}, {"measurement": "β-galactosidase activity, ipaD+ + CR", "setting": "ipgD-lacZ fusion; [4]", "value": 475, "unit": "Miller units"}, {"measurement": "Ratio li: activity with Congo red versus without Congo red", "setting": "ipaH4.5-lacZ fusion", "value": 3.5}, {"measurement": "β-galactosidase activity, ipaD+ + CR", "setting": "ipaH4.5-lacZ fusion; 100 μg/ml Congo red", "value": 110, "unit": "Miller units"}, {"measurement": "Concentration of Congo red at which virA-lacZ transcription reaches a plateau", "setting": "virA-lacZ fusion", "value": "about 100 μg/ml"}, {"measurement": "Transcription of the virA-lacZ fusion at low dye concentrations", "setting": "virA-lacZ fusion; SF1001, concentrations of dye up to 20 μg/ml", "value": "low"}, {"measurement": "Ratio li: activity with Congo red versus without Congo red", "setting": "virA-lacZ fusion; virA-lacZ, ipaD+ strain", "value": 17}, {"measurement": "β-galactosidase activity, ipaD+ + CR", "setting": "virA-lacZ fusion; virA-lacZ, ipaD+ strain grown in presence of 100 μg/ml Congo red, mean of at least three experiments", "value": 280, "unit": "Miller units"}, {"measurement": "Time after addition of the dye at which an increase in β-galactosidase specific activity was detected", "setting": "virA-lacZ fusion; wild-type derivative, Congo red 100 μg/ml added in exponential phase, samples at 5 min intervals", "value": 10, "unit": "min"}, {"measurement": "Ratio li: activity with Congo red versus without Congo red", "setting": "ipaA-lacZ fusion; ipaD+ strain", "value": 0.8}, {"measurement": "β-galactosidase activity, ipaD+ + CR", "setting": "ipaA-lacZ fusion; [4]", "value": 390, "unit": "Miller units"}, {"measurement": "Ratio li: activity with Congo red versus without Congo red", "setting": "ipaH1.4-lacZ fusion", "value": 5.1}, {"measurement": "β-galactosidase activity, ipaD+ + CR", "setting": "ipaH1.4-lacZ fusion; 100 μg/ml Congo red", "value": 270, "unit": "Miller units"}, {"measurement": "Ratio li: activity with Congo red versus without Congo red", "setting": "icsB-lacZ fusion; ipaD+ strain", "value": 1.0}, {"measurement": "β-galactosidase activity, ipaD+ + CR", "setting": "icsB-lacZ fusion; [4]", "value": 285, "unit": "Miller units"}]}]}
